Results as given in PubChem BioAssay AID248 (DTP/NCI, 2004).
Several values for one entry are separate records, joined by “and”; a condition that tells them apart may be missing. Equal entries are not always repeated. Inconclusive results and toxic doses are left out. Rule as the data show it: active = T/C of 150% or more; inactive = T/C below 125%.

Tested on: L1210 leukemia ip in BDF1 mice, survival T/C
Test: NCI In Vivo Anticancer Drug Screen. Data for tumor model L1210 Leukemia (intraperitoneal) in B6D2F1 (BDF1) mice
Details: endpoint: mean survival time, higher = longer survival
Summary of the method: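 Survival endpoint. Drug-treated group vs vehicle group, expressed as T divided by C. Tumor passaged by transplantation.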

[1] = dose: 100.0 mg/kg/injection, schedule: Q01DX009 (ip), vehicle: Klucel (hydroxypropylcellulose) (HPC)
[2] = dose: 200.0 mg/kg/injection, schedule: Q01DX009 (ip), vehicle: Klucel (hydroxypropylcellulose) (HPC)
[3] = dose: 100.0 mg/kg/injection, schedule: Q01DX001 (ip), vehicle: carboxymethylcellulose (CMC)
[4] = dose: 200.0 mg/kg/injection, schedule: Q01DX001 (ip), vehicle: carboxymethylcellulose (CMC)
[5] = dose: 400.0 mg/kg/injection, schedule: Q01DX001 (ip), vehicle: carboxymethylcellulose (CMC)
[6] = dose: 100.0 mg/kg/injection, schedule: Q01DX009 (ip), vehicle: saline with Tween-80
[7] = dose: 200.0 mg/kg/injection, schedule: Q01DX009 (ip), vehicle: saline with Tween-80
[8] = dose: 400.0 mg/kg/injection, schedule: Q01DX009 (ip), vehicle: saline with Tween-80
[9] = dose: 100.0 mg/kg/injection, schedule: Q01DX001 (ip), vehicle: saline
[10] = dose: 100.0 mg/kg/injection, schedule: Q04DX002 (ip), vehicle: Klucel (hydroxypropylcellulose) (HPC)
[11] = dose: 200.0 mg/kg/injection, schedule: Q04DX002 (ip), vehicle: Klucel (hydroxypropylcellulose) (HPC)
[12] = dose: 400.0 mg/kg/injection, schedule: Q04DX002 (ip), vehicle: Klucel (hydroxypropylcellulose) (HPC)
[13] = dose: 200.0 mg/kg/injection, schedule: Q01DX001 (ip), vehicle: saline
[14] = dose: 400.0 mg/kg/injection, schedule: Q01DX001 (ip), vehicle: saline
[15] = dose: 100.0 mg/kg/injection, schedule: Q01DX001 (ip), vehicle: saline with Tween-80
[16] = dose: 200.0 mg/kg/injection, schedule: Q01DX001 (ip), vehicle: saline with Tween-80
[17] = dose: 400.0 mg/kg/injection, schedule: Q01DX001 (ip), vehicle: saline with Tween-80
[18] = dose: 100.0 mg/kg/injection, schedule: Q04DX003 (ip), vehicle: Klucel (hydroxypropylcellulose) (HPC)
[19] = dose: 200.0 mg/kg/injection, schedule: Q04DX003 (ip), vehicle: Klucel (hydroxypropylcellulose) (HPC)
[20] = dose: 400.0 mg/kg/injection, schedule: Q01DX009 (ip), vehicle: Klucel (hydroxypropylcellulose) (HPC)
[21] = dose: 400.0 mg/kg/injection, schedule: Q04DX003 (ip), vehicle: Klucel (hydroxypropylcellulose) (HPC)
[22] = dose: 10.0 mg/kg/injection, schedule: Q01DX001 (ip), vehicle: saline
[23] = dose: 20.0 mg/kg/injection, schedule: Q01DX001 (ip), vehicle: saline
[24] = dose: 40.0 mg/kg/injection, schedule: Q01DX001 (ip), vehicle: saline

Measured: T/C

CCN(CC)CCNC(=O)Nc1ccc(OC)cc1
inactive: [1] 96 % of control | [2] 103 % of control

C=CCOc1cc(C)ccc1C
inactive: [3] 98 % of control | [4] 95 % of control | [5] 98 % of control

CC1C(=O)Nc2ccccc2N1C(=O)CN1CCCC1 (centres undefined)
inactive: dose: 50.0 mg/kg/injection, schedule: Q01DX009 (ip), vehicle: saline 98 % of control | dose: 100.0 mg/kg/injection, schedule: Q01DX009 (ip), vehicle: saline 101 % of control | dose: 100.0 mg/kg/injection, schedule: Q04DX003 (ip), vehicle: saline 96 % of control | dose: 200.0 mg/kg/injection, schedule: Q01DX009 (ip), vehicle: saline 106 % of control | dose: 200.0 mg/kg/injection, schedule: Q04DX003 (ip), vehicle: saline 96 % of control | dose: 400.0 mg/kg/injection, schedule: Q04DX003 (ip), vehicle: saline 94 % of control

C/C(=N\NS(=O)(=O)c1ccc(C)cc1)C1CCSC1 (centres undefined)
inactive: [6] 93 % of control | dose: 100.0 mg/kg/injection, schedule: Q04DX003 (ip), vehicle: saline with Tween-80 111 % of control | [7] 101 % of control | dose: 200.0 mg/kg/injection, schedule: Q04DX003 (ip), vehicle: saline with Tween-80 98 % of control | [8] 90 % of control | dose: 400.0 mg/kg/injection, schedule: Q04DX003 (ip), vehicle: saline with Tween-80 96 % of control

CCN(CC)CCNC(c1ccccc1)C(Cl)(Cl)Cl (centres undefined)
inactive: [9] 100 % of control

COc1ccc(-n2cccc2/C=N/O)cc1
inactive: [10] 96 % of control | [11] 100 % of control | [12] 86 % of control

Cc1nccn1C
inactive: [9] 101 % of control | [13] 90 % of control | [14] 92 % of control

C=C1CC2C=CC1C2 (centres undefined) (tested in a mixture with another compound)
inactive: [15] 98 % of control | [16] 93 % of control | [17] 94 % of control

N#Cc1ccccc1C(N)=O
inactive: dose: 12.5 mg/kg/injection, schedule: Q04DX002 (ip), vehicle: saline 107 % of control | dose: 25.0 mg/kg/injection, schedule: Q04DX002 (ip), vehicle: saline 98 % of control | dose: 50.0 mg/kg/injection, schedule: Q04DX002 (ip), vehicle: saline 102 % of control | dose: 100.0 mg/kg/injection, schedule: Q04DX002 (ip), vehicle: saline 90 % of control

CC1=NNC(=O)C1(Cl)c1ccc(N)cc1 (centres undefined)
inactive: [9] 102 % of control | [13] 100 % of control | [14] 100 % of control

O=C1NC(=O)C(=Cc2cc(Br)ccc2[N+](=O)[O-])C(=O)N1
inactive: [3] 91 % of control | [4] 104 % of control | [5] 91 % of control

O=C1CC(c2ccccc2)C2(c3ccccc3)OC12 (centres undefined)
inactive: [15] 101 % of control | [16] 94 % of control | [17] 111 % of control

O=C(OCCCl)C1C2CCC(O2)C1C(=O)OCCCl (centres undefined)
inactive: dose: 1.56 mg/kg/injection, schedule: Q04DX002 (ip), vehicle: Klucel (hydroxypropylcellulose) (HPC) 103 % of control

O=C(Nc1cc(S(=O)(=O)F)ccc1Cl)c1ccc2ccccc2c1O
inactive: [1] 97 % of control | [18] 91 % of control | [2] 101 % of control | [19] 98 % of control | [20] 95 % of control | [21] 104 % of control

CCCCCC(=O)C(CCCC)C(=O)Nc1ccccc1 (centres undefined)
inactive: [3] 96 % of control | [4] 91 % of control | [5] 91 % of control

CC(Cl)CNC(=O)Nc1cccc2c1CCCC2 (centres undefined)
inactive: dose: 50.0 mg/kg/injection, schedule: Q01DX001 (ip), vehicle: saline with Tween-80 103 % of control | [15] 100 % of control | [6] 96 % of control | [16] 94 % of control | [7] 95 % of control | [17] 91 % of control | [8] 90 % of control

CC(Oc1cc(Cl)c(Cl)cc1Cl)C(=O)OCc1ccco1 (centres undefined)
inactive: [6] 110 % of control | [10] 100 % of control | [7] 100 % of control | [11] 103 % of control | [8] 104 % of control | [12] 100 % of control

CCC1CCN(CC)CC1
inactive: [22] 101 % of control | dose: 10.0 mg/kg/injection, schedule: Q01DX009 (ip), vehicle: saline 92 % of control and 102 % of control | dose: 10.0 mg/kg/injection, schedule: Q04DX002 (ip), vehicle: saline 100 % of control and 109 % of control | dose: 10.0 mg/kg/injection, schedule: Q04DX003 (ip), vehicle: saline 102 % of control | [23] 101 % of control | dose: 20.0 mg/kg/injection, schedule: Q01DX009 (ip), vehicle: saline 101 % of control and 108 % of control | dose: 20.0 mg/kg/injection, schedule: Q04DX002 (ip), vehicle: saline 100 % of control and 117 % of control | dose: 20.0 mg/kg/injection, schedule: Q04DX003 (ip), vehicle: saline 103 % of control | [24] 95 % of control | dose: 40.0 mg/kg/injection, schedule: Q01DX009 (ip), vehicle: saline 94 % of control | dose: 40.0 mg/kg/injection, schedule: Q04DX002 (ip), vehicle: saline 94 % of control and 102 % of control | dose: 40.0 mg/kg/injection, schedule: Q04DX003 (ip), vehicle: saline 102 % of control

CCCCCCOC(=O)CCC(=O)OCCCCCC
inactive: [1] 97 % of control | [18] 92 % of control | [2] 101 % of control | [19] 92 % of control | [20] 97 % of control | [21] 97 % of control

C=C=C[P+](c1ccccc1)(c1ccccc1)c1ccccc1
inactive: dose: 5.0 mg/kg/injection, schedule: Q01DX001 (ip), vehicle: saline 104 % of control | [22] 98 % of control | [23] 101 % of control | [24] 124 % of control

CCOC(=O)CNC(=O)Oc1cc(C)cc(C)c1C
inactive: [6] 98 % of control | [7] 100 % of control | [8] 98 % of control

CCOC(=O)c1ccc(N(N=O)C(C)C)cc1
inactive: dose: 100.0 mg/kg/injection, schedule: Q04DX002 (ip), vehicle: saline with Tween-80 101 % of control | dose: 200.0 mg/kg/injection, schedule: Q04DX002 (ip), vehicle: saline with Tween-80 86 % of control | dose: 400.0 mg/kg/injection, schedule: Q04DX002 (ip), vehicle: saline with Tween-80 97 % of control

CCCCCCCCCCC(=O)CCCCCC
inactive: dose: 100.0 mg/kg/injection, schedule: Q01DX009 (ip), vehicle: other 98 % of control | dose: 200.0 mg/kg/injection, schedule: Q01DX009 (ip), vehicle: other 100 % of control | dose: 400.0 mg/kg/injection, schedule: Q01DX009 (ip), vehicle: other 107 % of control
